From patent EP2574333B1, “N-acetylcysteine effervescent tablet and its therapeutical applications” (Friulchem SpA, priority 2011, dated 2013)
Read-outs that look alike come from different tables or passages of the source.

What was measured:
[1] = Chronic toxicity in rats (NOEL); type: in vivo; conditions: oral route, 60 kg
[2] = in vivo, iv
[3] = human, intravenous route; cited from earlier work
[4] = rats, intraperitoneal route; cited from earlier work
[5] = mouse, cited from earlier work
[6] = chronic toxicity in rats, for 12 months; cited from earlier work
[7] = cited from earlier work
Glutathione (GSH) = conditions: cited from earlier work
[8] = 11,195 cases of suspected acetaminophen overdose reviewed; cited from earlier work

## CC(=O)N[C@@H](CS)C(=O)O [NAC, N-acetylcysteine]
[1]
  1200 mg dose (20 mg/kg) referred to NOEL in rats: 50 times less
[2]
  1200 mg dose (20 mg/kg) referred to TDLO in human: about 10 times less
[3]
  Toxic Dose Low (TDLO): 150 to 200 mg/kg
[4]
  Toxic Dose Low (TDLO): 150 to 200 mg/kg
[5]; intraperitoneal route
  Toxic Dose Low (TDLO): 408 to 450 mg/kg
[5]; oral route
  Toxic Dose Low (TDLO): 300 mg/kg
[6]
  no observed effect level (NOEL) dose: about 1000 mg/kg/day
[7]; after oral administration
  plasma half-life: 6.3 h
  time at which maximum plasma concentration is reached: 2 to 3 h
[7]; following oral administration for 4-14 days
  NAC in plasma or bronchoalveolar lavage fluid: cannot be detected
[7]; oral, unchanged molecule
  bioavailability: about 10%
Glutathione (GSH); NAC 600 mg once daily
  cysteine and GSH levels in plasma and lung: increased transiently
Glutathione (GSH); patients with COPD, 600 mg once daily
  plasma concentration of Glutathione (GSH): unchanged
Glutathione (GSH); patients with COPD, 600 mg three times daily
  plasma GSH levels: increased
[8]
  effectiveness of 72-hour oral regimen: as effective as the 24-hour regimen
